From patent US8946226B2, “Use of CDK inhibitor for the treatment of glioma” (Nerviano Medical Sciences S.r.l., priority 2008, dated 2015)

Legend:
[1] = Levels of compound in brain and plasma by LC/MS/MS; type: in vivo, Han Wistar rats; conditions: rat; for Brain levels: average
Protocol: The animals were sacrificed on day 6 at 2 and 6 hours after dosing. Brain and plasma were taken at the sacrifice time. Blood was put in heparinised plastic tubes, kept in ice-water bath, and then centrifuged (10 minutes, 1200 g at 4° C.). Brain and plasma samples were stored in a freezer at −80° C. until analysis. The levels of compound of formula (I) were analysed by LC/MS/MS.

U251 [2] = assay: Inhibition of cell proliferation (cellular ATP monitoring); type: cell-based; conditions: Homo sapiens, U-251; U251, 72 hours
Protocol: (§1) SF-268, SF-295, SF-539 and U251 cell lines were cultured in RPMI 1640 added with 10% FCS and 2 mM glutamine and U-87MG cell line was cultured in EMEM added with 10% FCS, […] and 1% NEAA. For all the experiments cells were seeded at the density of 1×10^4/cm^2, the day after treatment with the compound for the prescribed duration and then collected at the reported times.
(§2) Cells were washed and counted 72 hours after the treatment. Cell proliferation was determined by a cellular adenosine triphosphate monitoring system. Cell proliferation was compared to control cells. The concentration inhibiting cell proliferation by 50% (IC50) was calculated.

SF268 [3] = assay: as above; type: cell-based; conditions: Homo sapiens, SF-268; SF268, 72 hours
Protocol: as §1, §2

SF539 [4] = assay: as above; type: cell-based; conditions: Homo sapiens, SF-539; SF539, 72 hours
Protocol: as §1, §2

U87MG [5] = assay: as above; type: cell-based; conditions: Homo sapiens, U-87 MG, 72 hours
Protocol: as §1, §2

SF295 [6] = assay: as above; type: cell-based; conditions: Homo sapiens, SF-295; SF295, 72 hours
Protocol: as §1, §2

U251 [7] = assay: Analysis of BrdU incorporation (FACS); type: cell-based, human; conditions: U251, 24 hour-treatment
Protocol: as §1
(§3) BrdU (5-bromo-2′ deoxyuridine) was added to the cell culture at the final concentration of 30 μM for the last hour of a 24 hour-treatment. Cells were washed with PBS, fixed in 70% ethanol and stored at −20° C. At the moment of the analysis cells were centrifuged, washed with 1% FCS in PBS and DNA denaturated with HCl 2N for 20 minutes. After a wash in Na2B4O7 0.1M pH 8.5, cells were incubated with a solution of 0.5% Tween20 in PBS+1% FCS for 15 minutes and then centrifuged. The pellets were resuspended in 150 μl of a 1:10 diluted unconjugated anti-BrdU monoclonal antibody (Becton Dickinson) and incubated for 1 hour at room temperature. After a wash in PBS, the incubation with 0.5% Tween20 was repeated; then the secondary antibody was added (1:50 diluted FITC-conjugated goat anti mouse immunoglobulin (Jackson Lab.)). After one hour at room temperature the cells were rinsed again, counterstained with propidium iodide (2 μg/ml+12.5 μg/ml DNAse-free RNAse) overnight, then analyzed by FACS.

U251 human glioma cells = type: in vivo
Protocol: Balb, Nu/Nu male mice, from Harlan (Italy), were maintained in cages with paper filter cover, food and bedding sterilized and water acidified. 2.5×10^6 U251 human glioma cells (from the American Type Culture Collection) were injected subcutaneously in athymic mice. […] Tumor growth and body weight were measured every 3 days. Tumor growth was assessed by caliper. The two diameters were recorded and the tumor weight was calculated according the following formula: length (mm)×width^2/2. Toxicity was evaluated on the basis of body weight reduction.

[8] = system: all the tested glioma cells; assay: Inhibition of cell proliferation, summary over cell lines; type: cell-based; conditions: 72 hours, read-out: IC50 (inhibit proliferation), range over cell lines
Protocol: as §1, §2

SF268 [9] = assay: Analysis of BrdU incorporation (FACS); type: cell-based; conditions: SF268, 24 hour-treatment
Protocol: as §1, §3

SF539 [10] = assay: Analysis of BrdU incorporation (FACS); type: cell-based; conditions: SF539, 24 hour-treatment
Protocol: as §1, §3

U87MG [11] = assay: Analysis of BrdU incorporation (FACS); type: cell-based; conditions: 24 hour-treatment
Protocol: as §1, §3

SF295 [12] = assay: Analysis of BrdU incorporation (FACS); type: cell-based; conditions: SF295, 24 hour-treatment
Protocol: as §1, §3

SF-539 cells = assay: Mode of action by Western blot analysis; type: cell-based; conditions: SF-539 cells treated for 6 hours, 3 μM, FIG. 2
Protocol: (§4) Treated cells were lysed by adding SDS sample buffer (0.125M Tris-HCl pH6.8, 5% SDS). Samples were heated to 95° C. for 5 minutes and then sonicated using an Ultrasonic 2000 ARTEK. Lysed cells were centrifuged at 13,000 RPM for 10 minutes. Protein quantification was determined using BCA buffer (Pierce) and a BSA standard curve. 20 μg protein extract per well were loaded and separated by SDS-PAGE gel 7.5-10% (PAGE-PLUS 40% concentrate AMRESCO). The gel was blotted onto nitrocellulose filters (Hybond Amersham) in a buffer containing 25 mM Tris HCl pH 8.3, 192 mM Glycine and 20% methanol. The filters were saturated in 5% low-fat milk in TBS containing 0.1% Tween 20 (TBS-T) for 2 hours at room temperature and than incubated overnight at 4° C. with the primary monoclonal followed by washes in TBS-T and incubation using a secondary anti mouse antibody. The bands were visualized using the “Super Signal West Pico” Pierce.

all glioma cell lines = assay: Mode of action by Western blot analysis; type: cell-based; conditions: independently from the status of Rb pathway
Protocol: as §4

U251 cells [13] = assay: Mode of action by Western blot analysis; type: cell-based, human; conditions: U251 cells treated for 24 hours, 1 and 3 μM, FIG. 1
Protocol: as §4

SF268 [14] = assay: Acridine orange staining to evaluate autophagy (FACS); type: cell-based; conditions: SF268, 3 μM
Protocol: as §1
(§5) During the last 15 minutes of incubation, acridine orange (1 μg/ml) was added to the cells that were then collected, washed with PBS and analyzed by FACS for their fluorescence emission. Acridine orange moves freely to cross biological membranes but, when in the cytoplasm and nucleolus, fluoresces bright green and dim red; in the acidic vacuoles generated by autophagy appears bright red.

SF539 [15] = assay: as above; type: cell-based; conditions: SF539, 6 μM
Protocol: as §1, §5

U87MG [16] = assay: as above; type: cell-based; conditions: 3 μM
Protocol: as §1, §5

SF295 [17] = assay: as above; type: cell-based; conditions: SF295, 3 μM
Protocol: as §1, §5

U251 cells [18] = assay: Efficacy on intracranially implanted glioma tumor model; type: in vivo, Athymic male nude mice; conditions: 40 mg/kg bid OS, FIG. 3
Protocol: Animals that underwent surgical procedures were anesthetized following one of the above mentioned protocols, i.e. Ketamin, 80-100 mg/kg i.p.+Xilazin: 10 mg/kg i.p.; Isofluorane: 1.5-2%. Athymic male nude mice, aged 6-8 weeks were anesthetized, placed under the stereotaxic apparatus and gently fixed with ear bars and into the head holder. Skin of the head was cut longitudinally (parallel to ears) and skull of the mouse discovered. With the X and Y axis controller of the apparatus, bregma (interception between median sagittal and anterior coronal sutures to perform injection into the cerebral nuclei) and lambda (interception between median sagittal suture and posterior coronal suture to perform injection into the cerebellum) were identified as point 0. The following coordinates were set in the apparatus and the point of injection identified. With a microdrill a small hole was done in the desired point. Cells were aspirated with the Hamilton syringe (usually […]) just prior injection (a short mix of cells before aspiration was performed to avoid precipitation of cells). By pointing to the hole, Z axis was fixed to 0 and syringe gently inserted into the brain until reaching the right coordinate (−3.0 mm depth). U251 cells were injected at the speed of 1 μl per minute. […] After the end of the surgery mice were monitored for recovery until complete wakening.

[19] = system: all the tested glioma cells; assay: Acridine orange staining to evaluate autophagy, summary over cell lines; type: cell-based
Protocol: as §1, §5

[20] = Radioactivity distribution in brain by autoradioluminography, plasma by LSC; type: in vivo, Sprague Dawley rats; conditions: 14C-labelled, single oral 20 mg/kg as maleate salt, rat
Protocol: Animals were sacrificed 2, 6 and 24 hours after administration (2 animals at each selected time) and the radioactivity distribution of compound-related material was evaluated in intact brain, after excision. The autoradioluminography method was used to evaluate the quantitative radioactivity distribution in the brain.
The radioactivity distribution was also evaluated in blood and plasma collected from the animals after sacrifice. The radioactivity levels in blood and plasma were determined by Liquid Scintillation Counting (LSC).

U251 [21] = assay: Acridine orange staining to evaluate autophagy (FACS); type: cell-based, human; conditions: U251, 3 μM
Protocol: as §1, §5

## CNC(=O)c1nn(C)c2c1C(C)(C)Cc1cnc(Nc3ccc(N4CCN(C)CC4)cc3)nc1-2 [compound of formula (I), 8-[4-(4-methyl-piperazin-1-yl)-phenylamino]-1,4,4-trimethyl-4,5-dihydro-1H-pyrazolo[4,3-h]quinazoline-3-carboxylic acid methylamide]
[1]; Han Wistar, brain/plasma, oral 60 mg/kg for 6 days, assuming a density equal to 1, read-out: brain levels times higher than plasma levels
  Kp: 6.1 to 9.6
[1]; Han Wistar, plasma, oral 60 mg/kg for 6 consecutive days, day 6, 2 hours post-dosing
  concentration at 2 h: 9.8 µM
[1]; Han Wistar, plasma, oral 60 mg/kg for 6 consecutive days, day 6, 6 hours post-dosing
  concentration at 6 h: 8.4 µM
[1]; oral 60 mg/kg for 6 consecutive days, day 6, 2 hours post-dosing
  Brain levels: 88.9 nmoles/gr of tissue
[1]; oral 60 mg/kg for 6 consecutive days, day 6, 6 hours post-dosing
  Brain levels: 69.4 nmoles/gr of tissue
U251 [2]
  IC50: 2.8 µM
SF268 [3]
  IC50: 2.5 µM
SF539 [4]
  IC50: 1.4 µM
U87MG [5]
  IC50: 1.6 µM
SF295 [6]
  IC50: 5.4 µM
U251 [7]
  % BrdU inhib: 74%
U251 human glioma cells; U251 subcutaneous xenograft, oral 40 mg/kg BID for 10 consecutive days
  Max tumor growth inhibition (%): 80%
U251 human glioma cells; male, Balb Nu/Nu, mouse, in vivo, po, 40 mg/kg, 10 days
  Toxicity: 0/8
[8]
  IC50: 1.4 to 5.4 µM
SF268 [9]
  % BrdU inhib: 78%
SF539 [10]
  % BrdU inhib: 39%
U87MG [11]
  % BrdU inhib: 92%
SF295 [12]
  % BrdU inhib: 74%
SF-539 cells
  phosphorylation of TRKA receptor: Inhibition
  phosphorylation of downstream proteins, both in the MAPK and in AKT pathway: Inhibition
All glioma cell lines
  cell cycle related markers: decrease
U251 cells [13]
  Rb phosphorylation: strong inhibition
  cdc6 expression: strong inhibition
  cyclin A expression: strong inhibition
  cyclin B1 expression: strong inhibition
SF268 [14]
  Autophagy %: 70 (3 μM) %
SF539 [15]
  Autophagy %: 35 (6 μM) %
U87MG [16]
  Autophagy %: 50 (3 μM) %
SF295 [17]
  Autophagy %: 68 (3 μM) %
U251 cells [18]
  increase in the survival time in comparison to vehicle-treated control mice: 30%
[19]
  induce autophagy, % of the cells, range over cell lines: 36-70%
[20]; 2 h
  Brain (total radioactivity): 4.6 μg eq/g
  Cerebellum (total radioactivity): 4.4 μg eq/g
  Plasma (total radioactivity): 1.43 μg eq/g
[20]; 6 h
  Brain (total radioactivity): 1.4 μg eq/g
  Cerebellum (total radioactivity): 1.5 μg eq/g
  Plasma (total radioactivity): 0.89 μg eq/g
[20]; 24 h
  Brain (total radioactivity): 0.4 μg eq/g
  Cerebellum (total radioactivity): 0.4 μg eq/g
  Plasma (total radioactivity): 0.14 μg eq/g
U251 [21]
  Autophagy %: 58 (3 μM) %
